Experimental data: ChEMBL document CHEMBL1201862, “PubChem BioAssay data set” (2004)
Activity calls are given as the source filed them.

Experiments:
[1] = ADAM10 protease inhibitors, dose response, selectivity assay for ADAM17 exosite inhibitor project, biochemical, FRET peptide substrate, recombinant human ADAM10 (AID 743259);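 further: ADAM10 enzyme cleaving a FRET peptide substrate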
[2] = molecular target: Disintegrin and metalloproteinase domain-containing protein 17 (Homo sapiens, UniProt P78536); experiment: exosite inhibitors of ADAM17, dose response, biochemical (AID 743260)
[3] = microbe, parasite or virus in culture; assay type: functional; conditions: Mycobacterium tuberculosis
cells = assay type: functional, cell-based
[4] = molecular target: Nuclear receptor subfamily 0 group B member 1 (Homo sapiens, UniProt P51843); assay type: functional, cell-based;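 further: HEK293T cells transfected with SF-1 and DAX-1 plus StAR promoter luciferase reporter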
[5] = molecular target: T1, Sentrin-specific protease 1 (Homo sapiens, UniProt Q9P0U3); experiment: potency of human SENP1 inhibitors, dose response, biochemical, kinetic FRET (AID 651697); assay type: functional; conditions: read-out: IC50_Mean
T1 sequence (Q9P0U3 whole entry): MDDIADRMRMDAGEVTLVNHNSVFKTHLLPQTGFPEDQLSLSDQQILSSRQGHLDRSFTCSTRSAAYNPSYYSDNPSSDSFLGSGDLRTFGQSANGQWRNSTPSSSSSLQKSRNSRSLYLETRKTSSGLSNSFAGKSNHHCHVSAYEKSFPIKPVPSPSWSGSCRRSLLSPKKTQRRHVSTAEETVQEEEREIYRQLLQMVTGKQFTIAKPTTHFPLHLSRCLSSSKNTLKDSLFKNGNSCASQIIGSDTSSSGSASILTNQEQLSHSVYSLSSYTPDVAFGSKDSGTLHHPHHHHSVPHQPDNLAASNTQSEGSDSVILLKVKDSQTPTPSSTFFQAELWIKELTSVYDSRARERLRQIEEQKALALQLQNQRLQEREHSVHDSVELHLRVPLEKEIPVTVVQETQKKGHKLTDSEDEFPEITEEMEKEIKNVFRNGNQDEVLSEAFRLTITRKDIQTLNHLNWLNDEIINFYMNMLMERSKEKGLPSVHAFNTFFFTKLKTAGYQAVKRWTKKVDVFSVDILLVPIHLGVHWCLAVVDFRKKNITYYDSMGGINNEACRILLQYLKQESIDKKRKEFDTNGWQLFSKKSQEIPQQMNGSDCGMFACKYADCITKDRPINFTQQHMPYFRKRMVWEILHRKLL

[6] = molecular target: T2, Rac GTPase-activating protein 1 (Homo sapiens, UniProt Q9H0H5); experiment: MgcRacGAP GTPase-activating activity inhibitors, confirmation, biochemical, ADP Hunter fluorescence, primary and confirmatory (AID 624330); assay type: functional
T2 sequence (Q9H0H5 whole entry): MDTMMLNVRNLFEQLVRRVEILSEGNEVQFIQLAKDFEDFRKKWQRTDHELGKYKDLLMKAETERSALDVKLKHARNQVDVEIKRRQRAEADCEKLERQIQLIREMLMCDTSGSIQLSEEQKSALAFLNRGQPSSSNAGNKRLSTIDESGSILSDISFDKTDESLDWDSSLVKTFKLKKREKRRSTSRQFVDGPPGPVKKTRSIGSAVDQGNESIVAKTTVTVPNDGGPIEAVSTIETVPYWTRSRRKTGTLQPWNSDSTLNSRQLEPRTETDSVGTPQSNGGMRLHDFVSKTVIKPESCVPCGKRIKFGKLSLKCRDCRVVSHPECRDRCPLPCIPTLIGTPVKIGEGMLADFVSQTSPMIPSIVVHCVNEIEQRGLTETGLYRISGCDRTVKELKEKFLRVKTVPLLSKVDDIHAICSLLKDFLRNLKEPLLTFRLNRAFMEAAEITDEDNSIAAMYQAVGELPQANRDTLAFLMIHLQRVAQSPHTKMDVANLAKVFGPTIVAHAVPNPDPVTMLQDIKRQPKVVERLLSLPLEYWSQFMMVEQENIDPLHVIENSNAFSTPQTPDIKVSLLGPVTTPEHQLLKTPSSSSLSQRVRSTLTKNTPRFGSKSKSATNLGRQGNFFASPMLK

Large T antigen = Large T antigen (Simian virus 40, UniProt P03070); assay type: functional, Betapolyomavirus macacae;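 further: Confirmatory-stage PubChem screen for compounds that inhibit SV40 T antigen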
[7] = molecular target: T1, Sentrin-specific protease 1; experiment: Dose response confirmation of small molecule inhibitors of the catalytic domain of the SUMO protease, SENP1 in a FRET assay.; assay type: functional; conditions: read-out: IC50_Mean
[8] = molecular target: Intestinal-type alkaline phosphatase (Mus musculus, UniProt P24822); experiment: PubChem AID 488785; assay type: functional
[9] = molecular target: T3, Alkaline phosphatase, tissue-nonspecific isozyme (Homo sapiens, UniProt P05186); experiment: TNAP enzyme inhibition by screening hits, dose response, selectivity assay for mouse IAP inhibitor project, biochemical, human TNAP, uHTS hits (AID 488906); assay type: functional
T3 sequence (P05186 whole entry): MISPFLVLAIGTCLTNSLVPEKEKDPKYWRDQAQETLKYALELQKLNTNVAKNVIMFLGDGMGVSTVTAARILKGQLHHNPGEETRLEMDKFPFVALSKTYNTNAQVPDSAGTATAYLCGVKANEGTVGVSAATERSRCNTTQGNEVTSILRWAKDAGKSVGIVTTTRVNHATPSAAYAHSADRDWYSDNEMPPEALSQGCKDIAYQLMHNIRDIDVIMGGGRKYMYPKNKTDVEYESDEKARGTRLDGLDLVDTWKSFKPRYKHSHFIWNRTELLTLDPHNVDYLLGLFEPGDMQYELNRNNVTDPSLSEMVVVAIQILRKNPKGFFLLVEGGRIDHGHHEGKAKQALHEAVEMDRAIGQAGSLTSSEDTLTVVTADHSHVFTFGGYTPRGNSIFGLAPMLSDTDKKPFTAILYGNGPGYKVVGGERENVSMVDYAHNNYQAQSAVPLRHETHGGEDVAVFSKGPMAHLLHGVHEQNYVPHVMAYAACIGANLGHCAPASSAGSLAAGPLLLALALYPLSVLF

[10] = molecular target: 1-phosphatidylinositol 4,5-bisphosphate phosphodiesterase gamma-1 (Homo sapiens, UniProt P19174); experiment: Counterscreen for inhibitors of phospholipase C isozymes (PLC-B3): Fluorescence-based biochemical high throughput dose response assay to identify inhibitors of phospholipase C isozymes (PLC-gamma1).
[11] = molecular target: T4, Histone-lysine N-methyltransferase NSD2 (Homo sapiens, UniProt O96028); assay type: biochemical
T4 sequence (O96028 whole entry): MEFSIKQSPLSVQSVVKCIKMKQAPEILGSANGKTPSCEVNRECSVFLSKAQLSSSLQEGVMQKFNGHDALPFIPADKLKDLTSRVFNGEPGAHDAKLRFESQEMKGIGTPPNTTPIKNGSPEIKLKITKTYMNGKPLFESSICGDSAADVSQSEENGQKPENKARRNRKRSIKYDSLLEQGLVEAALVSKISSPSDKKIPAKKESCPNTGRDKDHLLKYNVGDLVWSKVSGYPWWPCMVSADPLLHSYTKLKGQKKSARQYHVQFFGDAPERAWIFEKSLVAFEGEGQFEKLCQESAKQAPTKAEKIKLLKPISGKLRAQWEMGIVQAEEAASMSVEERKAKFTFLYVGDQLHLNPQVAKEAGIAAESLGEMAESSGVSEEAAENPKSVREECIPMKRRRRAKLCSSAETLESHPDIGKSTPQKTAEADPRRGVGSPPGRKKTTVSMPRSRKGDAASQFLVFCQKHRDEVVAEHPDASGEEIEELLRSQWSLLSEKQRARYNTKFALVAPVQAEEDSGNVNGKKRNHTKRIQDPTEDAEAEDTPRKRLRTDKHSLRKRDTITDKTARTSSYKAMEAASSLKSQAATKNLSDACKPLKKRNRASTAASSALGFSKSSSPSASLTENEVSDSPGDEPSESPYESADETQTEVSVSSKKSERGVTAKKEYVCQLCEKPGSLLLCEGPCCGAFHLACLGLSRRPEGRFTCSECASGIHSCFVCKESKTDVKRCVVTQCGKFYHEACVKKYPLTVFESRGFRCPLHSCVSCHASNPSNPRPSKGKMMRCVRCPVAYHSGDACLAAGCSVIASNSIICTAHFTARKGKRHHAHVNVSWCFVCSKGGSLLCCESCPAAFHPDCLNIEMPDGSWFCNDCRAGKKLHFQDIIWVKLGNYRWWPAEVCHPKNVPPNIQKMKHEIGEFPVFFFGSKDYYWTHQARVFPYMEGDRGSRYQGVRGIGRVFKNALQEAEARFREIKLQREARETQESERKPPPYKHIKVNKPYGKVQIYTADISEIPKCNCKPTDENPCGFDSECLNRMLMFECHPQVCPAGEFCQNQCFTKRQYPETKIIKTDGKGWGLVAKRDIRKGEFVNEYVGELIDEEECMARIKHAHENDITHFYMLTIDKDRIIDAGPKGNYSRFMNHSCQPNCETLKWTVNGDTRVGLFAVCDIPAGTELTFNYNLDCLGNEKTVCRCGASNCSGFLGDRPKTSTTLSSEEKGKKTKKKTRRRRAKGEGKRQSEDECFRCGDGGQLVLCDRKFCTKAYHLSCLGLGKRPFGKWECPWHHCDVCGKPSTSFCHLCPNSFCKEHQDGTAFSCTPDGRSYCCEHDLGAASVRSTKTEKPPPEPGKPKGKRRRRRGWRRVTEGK

[12] = molecular target: T5, Zinc finger protein mex-5 (Caenorhabditis elegans, UniProt Q9XUB2); experiment: MEX-5/TCR-2 RNA interaction inhibitors, dose response, biochemical, C. elegans, fluorescence polarization (AID 1960)
T5 sequence (Q9XUB2 whole entry): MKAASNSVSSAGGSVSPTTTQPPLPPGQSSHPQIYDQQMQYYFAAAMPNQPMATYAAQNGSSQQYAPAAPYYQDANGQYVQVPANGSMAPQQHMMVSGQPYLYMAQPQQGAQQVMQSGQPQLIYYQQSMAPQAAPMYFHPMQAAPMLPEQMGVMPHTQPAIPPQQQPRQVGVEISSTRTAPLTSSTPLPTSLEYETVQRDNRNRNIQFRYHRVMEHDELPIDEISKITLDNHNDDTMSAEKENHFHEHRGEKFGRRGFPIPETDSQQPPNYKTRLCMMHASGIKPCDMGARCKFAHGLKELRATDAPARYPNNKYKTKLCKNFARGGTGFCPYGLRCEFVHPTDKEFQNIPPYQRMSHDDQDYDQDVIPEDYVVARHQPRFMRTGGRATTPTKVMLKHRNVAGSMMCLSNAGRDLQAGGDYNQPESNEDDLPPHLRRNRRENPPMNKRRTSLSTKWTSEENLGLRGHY

[13] = molecular target: Intestinal-type alkaline phosphatase (Homo sapiens, UniProt P09923); experiment: inhibition of human intestinal alkaline phosphatase – biochemical, dose response (AID 488876); assay type: functional
[14] = molecular target: 1-phosphatidylinositol 4,5-bisphosphate phosphodiesterase beta-3 (Homo sapiens, UniProt Q01970); experiment: Fluorescence-based biochemical high throughput dose response assay to identify inhibitors of phospholipase C isozymes (PLC-B3).
[15] = molecular target: T6, RNA-binding protein pos-1 (Caenorhabditis elegans, UniProt G5EF15); experiment: inhibitors of POS-1/mex-3 RNA binding, dose response, biochemical, fluorescence polarization (AID 1964);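 further: purified POS-1 fused to maltose binding protein made in E. coli; potency of compounds blocking POS-1 binding to fluorescent RNA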
T6 sequence (G5EF15 whole entry): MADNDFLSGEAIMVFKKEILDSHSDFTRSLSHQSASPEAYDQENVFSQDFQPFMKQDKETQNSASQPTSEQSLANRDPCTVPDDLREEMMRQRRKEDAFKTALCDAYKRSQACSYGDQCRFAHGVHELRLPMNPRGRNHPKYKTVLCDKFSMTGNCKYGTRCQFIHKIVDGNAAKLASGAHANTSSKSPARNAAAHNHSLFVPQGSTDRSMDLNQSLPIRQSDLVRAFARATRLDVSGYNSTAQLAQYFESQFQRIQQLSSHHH

[16] = CEM21 lymphoblast cell cytotoxicity, dose response, cytotoxicity control for viral fusion inhibitor project, CellTiter-Glo luminescence, cherry-picked (AID 652042); assay type: functional, cell-based;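 further: potency for signal decrease meaning cytotoxicity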
[17] = off-target signal loss in HeLa-CEM21 co-culture – HeLa F-luc CTL cells, cherry-picked, counter-screen for HIV-1 Env fusion inhibitor project, dose response (AID 652040); assay type: functional, cell-based;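 further: potency for signal decrease marking cytotoxic or nonspecific inhibition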
[18] = inhibitors of clade B AD8 Env fusion, dose response, cell-based, cherry-pick (AID 652062); assay type: functional;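 further: luciferase signal from cell-cell fusion driven by HIV-1 clade B AD8 Env; potency is for inhibitors of fusion seen as a drop in luminescence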
[19] = inhibitors of HIV Env-driven cell fusion, dose response, cherry-pick (AID 652057); assay type: functional, cell-based
[20] = ZM109 Env clade C HIV-1 fusion inhibitors, dose response, HeLa effector, CEM target cells, luciferase, cherry-pick (AID 652058); assay type: functional, cell-based

Disintegrin and metalloproteinase domain-containing protein 17, sequence (P78536 whole entry, the tested form may be a part): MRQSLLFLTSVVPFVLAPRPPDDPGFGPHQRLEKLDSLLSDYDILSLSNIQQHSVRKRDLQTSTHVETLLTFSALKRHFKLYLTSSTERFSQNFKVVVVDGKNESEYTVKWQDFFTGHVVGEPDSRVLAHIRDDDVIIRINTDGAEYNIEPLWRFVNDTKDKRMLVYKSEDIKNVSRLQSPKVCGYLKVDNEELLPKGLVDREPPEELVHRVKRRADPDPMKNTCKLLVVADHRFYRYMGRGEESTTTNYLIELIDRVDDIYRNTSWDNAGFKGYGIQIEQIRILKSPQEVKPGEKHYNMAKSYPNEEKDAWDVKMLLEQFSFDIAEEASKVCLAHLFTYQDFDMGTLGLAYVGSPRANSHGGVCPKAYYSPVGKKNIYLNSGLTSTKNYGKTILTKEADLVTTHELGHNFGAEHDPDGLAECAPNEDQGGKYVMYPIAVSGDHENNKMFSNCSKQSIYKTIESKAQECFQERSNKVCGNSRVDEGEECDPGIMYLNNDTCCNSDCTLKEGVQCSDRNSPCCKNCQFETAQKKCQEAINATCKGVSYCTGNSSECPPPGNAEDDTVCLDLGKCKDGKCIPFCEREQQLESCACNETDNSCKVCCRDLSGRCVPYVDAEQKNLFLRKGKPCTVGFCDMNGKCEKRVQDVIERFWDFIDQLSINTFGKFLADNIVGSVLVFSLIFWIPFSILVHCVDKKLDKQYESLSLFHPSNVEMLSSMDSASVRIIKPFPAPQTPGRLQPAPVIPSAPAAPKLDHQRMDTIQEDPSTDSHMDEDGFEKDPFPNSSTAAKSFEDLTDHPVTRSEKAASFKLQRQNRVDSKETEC
Nuclear receptor subfamily 0 group B member 1, sequence (P51843 whole entry): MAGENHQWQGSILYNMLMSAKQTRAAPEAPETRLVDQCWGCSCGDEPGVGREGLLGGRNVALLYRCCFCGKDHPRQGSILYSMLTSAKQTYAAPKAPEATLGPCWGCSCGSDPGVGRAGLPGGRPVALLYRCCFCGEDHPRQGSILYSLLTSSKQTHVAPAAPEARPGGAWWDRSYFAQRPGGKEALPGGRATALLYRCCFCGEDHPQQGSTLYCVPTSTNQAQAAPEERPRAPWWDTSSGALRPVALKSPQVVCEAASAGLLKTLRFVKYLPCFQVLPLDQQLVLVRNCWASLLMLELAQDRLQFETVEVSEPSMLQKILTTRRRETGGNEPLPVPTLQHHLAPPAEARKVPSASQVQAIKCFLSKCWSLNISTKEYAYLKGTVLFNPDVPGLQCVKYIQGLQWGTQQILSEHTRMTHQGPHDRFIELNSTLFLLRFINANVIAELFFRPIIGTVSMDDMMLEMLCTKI
1-phosphatidylinositol 4,5-bisphosphate phosphodiesterase beta-3, sequence (Q01970 whole entry, the tested form may be a part): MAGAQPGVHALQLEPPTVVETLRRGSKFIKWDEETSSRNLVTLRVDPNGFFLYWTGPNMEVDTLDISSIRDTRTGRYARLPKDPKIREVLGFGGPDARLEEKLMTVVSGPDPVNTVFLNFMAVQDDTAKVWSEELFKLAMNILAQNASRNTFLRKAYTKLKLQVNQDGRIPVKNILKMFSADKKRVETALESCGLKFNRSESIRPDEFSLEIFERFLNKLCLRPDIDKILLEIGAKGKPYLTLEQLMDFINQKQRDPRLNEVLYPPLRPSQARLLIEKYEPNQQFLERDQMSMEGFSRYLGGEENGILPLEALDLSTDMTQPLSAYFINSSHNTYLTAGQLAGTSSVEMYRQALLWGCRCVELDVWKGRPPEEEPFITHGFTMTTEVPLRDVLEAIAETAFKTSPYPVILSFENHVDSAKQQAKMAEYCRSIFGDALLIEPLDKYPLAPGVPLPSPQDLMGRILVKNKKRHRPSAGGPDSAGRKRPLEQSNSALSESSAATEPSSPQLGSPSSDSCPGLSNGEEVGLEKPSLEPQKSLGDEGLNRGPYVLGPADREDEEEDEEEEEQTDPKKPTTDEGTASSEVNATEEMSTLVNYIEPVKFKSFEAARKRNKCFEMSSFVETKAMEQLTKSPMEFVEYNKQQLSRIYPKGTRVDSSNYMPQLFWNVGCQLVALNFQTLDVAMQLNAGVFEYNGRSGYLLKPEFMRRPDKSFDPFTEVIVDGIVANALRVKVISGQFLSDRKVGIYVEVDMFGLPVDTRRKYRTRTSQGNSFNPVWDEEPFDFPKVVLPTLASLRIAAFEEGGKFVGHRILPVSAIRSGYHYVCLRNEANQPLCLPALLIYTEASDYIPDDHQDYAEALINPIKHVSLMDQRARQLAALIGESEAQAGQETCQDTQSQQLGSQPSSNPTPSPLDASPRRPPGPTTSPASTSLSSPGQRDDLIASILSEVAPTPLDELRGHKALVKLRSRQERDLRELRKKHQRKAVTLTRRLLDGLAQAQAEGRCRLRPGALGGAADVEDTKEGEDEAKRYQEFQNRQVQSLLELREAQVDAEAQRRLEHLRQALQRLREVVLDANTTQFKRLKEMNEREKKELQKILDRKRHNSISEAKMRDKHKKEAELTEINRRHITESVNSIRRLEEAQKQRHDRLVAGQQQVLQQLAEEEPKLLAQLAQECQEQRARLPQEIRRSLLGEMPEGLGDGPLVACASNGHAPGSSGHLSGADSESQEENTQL
Intestinal-type alkaline phosphatase (Mus musculus, UniProt P24822), sequence (P24822 whole entry): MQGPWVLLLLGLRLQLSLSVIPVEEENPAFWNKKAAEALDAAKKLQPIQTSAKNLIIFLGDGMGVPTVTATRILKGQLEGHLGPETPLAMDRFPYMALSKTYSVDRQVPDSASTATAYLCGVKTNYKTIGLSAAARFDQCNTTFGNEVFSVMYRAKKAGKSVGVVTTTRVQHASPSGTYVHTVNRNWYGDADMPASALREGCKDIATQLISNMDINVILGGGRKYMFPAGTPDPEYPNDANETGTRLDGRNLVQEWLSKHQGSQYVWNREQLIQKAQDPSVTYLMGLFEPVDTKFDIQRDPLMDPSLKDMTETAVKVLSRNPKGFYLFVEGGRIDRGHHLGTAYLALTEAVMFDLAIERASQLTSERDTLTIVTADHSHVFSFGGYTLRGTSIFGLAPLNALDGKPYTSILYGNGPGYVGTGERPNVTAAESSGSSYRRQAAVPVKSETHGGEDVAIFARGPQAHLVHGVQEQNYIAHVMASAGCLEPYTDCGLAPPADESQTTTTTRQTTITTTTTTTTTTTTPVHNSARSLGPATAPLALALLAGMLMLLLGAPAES
Large T antigen, sequence (P03070 whole entry, the tested form may be a part): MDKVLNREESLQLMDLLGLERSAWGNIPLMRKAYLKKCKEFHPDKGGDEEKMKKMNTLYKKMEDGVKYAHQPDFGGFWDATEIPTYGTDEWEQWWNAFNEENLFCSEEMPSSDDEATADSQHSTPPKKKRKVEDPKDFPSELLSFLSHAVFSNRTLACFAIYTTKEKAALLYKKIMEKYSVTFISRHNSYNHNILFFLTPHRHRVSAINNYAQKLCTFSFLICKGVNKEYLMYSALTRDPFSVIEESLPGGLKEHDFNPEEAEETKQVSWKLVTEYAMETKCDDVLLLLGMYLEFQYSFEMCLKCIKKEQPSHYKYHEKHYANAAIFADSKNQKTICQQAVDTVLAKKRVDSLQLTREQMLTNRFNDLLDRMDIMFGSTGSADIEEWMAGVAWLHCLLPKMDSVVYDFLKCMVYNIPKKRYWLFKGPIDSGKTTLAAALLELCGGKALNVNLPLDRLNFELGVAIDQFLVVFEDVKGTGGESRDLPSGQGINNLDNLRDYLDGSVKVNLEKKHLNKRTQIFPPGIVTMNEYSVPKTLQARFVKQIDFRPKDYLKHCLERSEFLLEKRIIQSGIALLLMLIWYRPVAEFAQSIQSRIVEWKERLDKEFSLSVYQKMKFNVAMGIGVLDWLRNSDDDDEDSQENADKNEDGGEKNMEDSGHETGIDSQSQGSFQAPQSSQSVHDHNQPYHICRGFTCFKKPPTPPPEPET
Intestinal-type alkaline phosphatase (Homo sapiens, UniProt P09923), sequence (P09923 whole entry): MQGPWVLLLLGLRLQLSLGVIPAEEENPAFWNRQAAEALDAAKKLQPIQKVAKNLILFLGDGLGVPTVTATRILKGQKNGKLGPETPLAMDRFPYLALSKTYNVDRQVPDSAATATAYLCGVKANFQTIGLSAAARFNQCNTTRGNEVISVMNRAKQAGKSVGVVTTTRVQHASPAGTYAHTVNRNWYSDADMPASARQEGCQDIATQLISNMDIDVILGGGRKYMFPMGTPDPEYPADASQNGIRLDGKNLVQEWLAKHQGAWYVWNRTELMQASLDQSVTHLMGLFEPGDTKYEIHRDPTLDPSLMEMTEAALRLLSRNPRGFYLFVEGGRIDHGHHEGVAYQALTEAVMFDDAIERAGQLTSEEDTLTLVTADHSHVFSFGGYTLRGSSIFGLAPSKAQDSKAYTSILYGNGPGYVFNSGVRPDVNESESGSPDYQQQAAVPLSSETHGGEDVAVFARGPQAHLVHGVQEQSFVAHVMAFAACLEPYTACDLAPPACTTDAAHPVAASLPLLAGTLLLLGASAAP

## O=C(Nc1ccccc1)C1=C[C@@H](C2CCCCC2)C[C@@H](OCc2ccc(CO)cc2)O1
[1]
  IC50: 21.8 µM (inactive)
[2]
  IC50: > 69.5 µM (inactive)
[3]
  CC50: > 40 µM (active)

## COc1ccc(C(=O)CSc2nccn2C)c(OC)c1
cells
  IC50: > 67.5 µM (inactive)
[4]
  IC50: > 67.5 µM (inactive)

## COc1ccccc1NC(CC(=O)c1ccccc1)C(=O)OCC(=O)c1ccc(Br)cc1 (centres undefined)
cells
  IC50: > 67.5 µM (inactive)
[4]
  IC50: > 0.278 µM (active)

## CCOc1cc(/C=C2\SC(=O)N=C2N)ccc1O
[5]
  IC50: 10.9 µM (active)
[6]
  IC50: 13 µM (active)
Large T antigen
  IC50: 4.73 µM (active)
[7]
  IC50: 18.2 µM (active)

## CC(OC(=O)CCCCCN=C1NS(=O)(=O)c2ccccc21)C(=O)Nc1cc(Cl)cc(Cl)c1 (centres undefined)
[2]
  IC50: > 69.5 µM (inactive)

## CC(OC(=O)CCCCCNC1=NS(=O)(=O)c2ccccc21)C(=O)Nc1cc(Cl)cc(Cl)c1 (centres undefined)
[1]
  IC50: 50 µM (inactive)

## O=C(/C=C/c1ccco1)NC(=S)Nc1ccc(C(=O)O)cc1
[8]
  IC50: 2.97 µM (active)
[9]
  IC50: 45 µM (active)
[10]
  IC50: > 122 µM (inactive)
[11]
  AC50: 13 µM (active)
[6]
  IC50: 147 µM (active)
[12]
  EC50: 12.8 µM (active)
[13]
  IC50: 21.8 µM (active)
[14]
  IC50: > 122 µM (inactive)
[15]
  EC50: 8.75 µM (active)

## O=[N+]([O-])c1ccc(C=NNc2ccccc2)cc1
[5]
  IC50: 21.5 µM (inactive)
[7]
  IC50: 7.2 µM (active)

## CC1(C)Cc2ccccc2C(/C(=N\Nc2cccc(Cl)c2)C(N)=O)=N1
[16]
  AC50: 49.5 µM (active)
[17]
  AC50: 35.5 µM (active)
[18]
  AC50: 8.02 µM (active)
[19]
  AC50: 2.68 µM (active)
[20]
  AC50: 2.69 µM (active)
